In patent US10168342B2, “Lipid probes and uses thereof” (THE SCRIPPS RESEARCH INSTITUTE, priority 2015, dated 2019):

Columns and labels:
[1] = biological target: AEA-DA lipid probe targets in Neuro2a cells (Mus musculus, UniProt Q80YV4); conditions: competitor 200 μM
[2] = biological target: T1, lipid-binding proteins in A549 cells (Homo sapiens, UniProt P21796); assay: SILAC MS mapping of UV-dependent lipid probe targets in A549 cells; assay type: cell-based; conditions: AEA-DA probe vs NoUV
T1 construct: endogenous in cells; host or cells: A549 (PMA-stimulated for the PTGS2 experiments)

[3] = biological target: T2, lipid-binding proteins in A549 cells (Homo sapiens, UniProt Q14534); assay: as above; assay type: cell-based; conditions: AEA-DA probe vs NoUV
T2 construct: endogenous in cells; host or cells: A549 (PMA-stimulated for the PTGS2 experiments)

[4] = biological target: T3, lipid-binding proteins in A549 cells (Homo sapiens, UniProt P07602); assay: as above; assay type: cell-based; conditions: AEA-DA probe vs NoUV
T3 construct: endogenous in cells; host or cells: A549 (PMA-stimulated for the PTGS2 experiments)

[5] = biological target: T4, lipid-binding proteins in A549 cells (Homo sapiens, UniProt Q53GQ0); assay: as above; assay type: cell-based; conditions: AEA-DA probe vs NoUV
T4 construct: endogenous in cells; host or cells: A549 (PMA-stimulated for the PTGS2 experiments)

[6] = biological target: T5, lipid-binding proteins in A549 cells (Homo sapiens, UniProt Q9NS69); assay: as above; assay type: cell-based; conditions: AEA-DA probe vs NoUV
T5 construct: endogenous in cells; host or cells: A549 (PMA-stimulated for the PTGS2 experiments)

[7] = biological target: T6, lipid-binding proteins in A549 cells (Homo sapiens, UniProt P30519); assay: as above; assay type: cell-based; conditions: AEA-DA probe vs NoUV
T6 construct: endogenous in cells; host or cells: A549 (PMA-stimulated for the PTGS2 experiments)

[8] = biological target: T7, lipid-binding proteins in A549 cells (Homo sapiens, UniProt Q9H4I3); assay: as above; assay type: cell-based; conditions: AEA-DA probe vs NoUV
T7 construct: endogenous in cells; host or cells: A549 (PMA-stimulated for the PTGS2 experiments)

[9] = biological target: T8, lipid-binding proteins in A549 cells (Homo sapiens, UniProt Q86XL3); assay: as above; assay type: cell-based; conditions: AEA-DA probe vs NoUV
T8 construct: endogenous in cells; host or cells: A549 (PMA-stimulated for the PTGS2 experiments)

[10] = biological target: T9, lipid-binding proteins in A549 cells (Homo sapiens, UniProt P67812); assay: as above; assay type: cell-based; conditions: AEA-DA probe vs NoUV
T9 construct: endogenous in cells; host or cells: A549 (PMA-stimulated for the PTGS2 experiments)

[11] = biological target: T10, lipid-binding proteins in A549 cells (Homo sapiens, UniProt O15173); assay: as above; assay type: cell-based; conditions: AEA-DA probe vs NoUV
T10 construct: endogenous in cells; host or cells: A549 (PMA-stimulated for the PTGS2 experiments)

[12] = biological target: T11, lipid-binding proteins in A549 cells (Homo sapiens, UniProt Q9HAW7); assay: as above; assay type: cell-based; conditions: AEA-DA probe vs NoUV
T11 construct: endogenous in cells; host or cells: A549 (PMA-stimulated for the PTGS2 experiments)

[13] = biological target: T12, lipid-binding proteins in A549 cells (Homo sapiens, UniProt O95470); assay: as above; assay type: cell-based; conditions: AEA-DA probe vs NoUV
T12 construct: endogenous in cells; host or cells: A549 (PMA-stimulated for the PTGS2 experiments)

[14] = biological target: T13, lipid-binding proteins in A549 cells (Homo sapiens, UniProt P45880); assay: as above; assay type: cell-based; conditions: AEA-DA probe vs NoUV
T13 construct: endogenous in cells; host or cells: A549 (PMA-stimulated for the PTGS2 experiments)

[15] = biological target: T14, AEA-DA-modified peptides in Neuro2a cells (Mus musculus, UniProt Q8BH04); assay: isoTOP-ABPP mapping of AEA-DA-modified peptides in Neuro2a cells; assay type: cell-based; conditions: AEA-DA-modified peptide PCK2 Q8BH04 245-262, SEQ ID NO 79; probe 100 μM, 12 replicates
T14 construct: endogenous in cells; host or cells: Neuro2a

[16] = biological target: T15, AEA-DA-modified peptides in Neuro2a cells (Mus musculus, UniProt P62814); assay: as above; assay type: cell-based; conditions: AEA-DA-modified peptide ATP6V1B2 P62814 68-82, SEQ ID NO 20; probe 100 μM, 12 replicates
T15 construct: endogenous in cells; host or cells: Neuro2a

[17] = biological target: AEA-DA lipid probe targets in Neuro2a cells (Mus musculus, UniProt Q9QXS1); conditions: competitor 25 μM
[18] = biological target: AEA-DA lipid probe targets in Neuro2a cells (Mus musculus, UniProt P21619); conditions: protein Lmnb2; Neuro2a cells; competitor 50 μM
AEA-DA lipid probe targets in Neuro2a cells (Mus musculus, UniProt P21619), sequence (P21619 whole entry): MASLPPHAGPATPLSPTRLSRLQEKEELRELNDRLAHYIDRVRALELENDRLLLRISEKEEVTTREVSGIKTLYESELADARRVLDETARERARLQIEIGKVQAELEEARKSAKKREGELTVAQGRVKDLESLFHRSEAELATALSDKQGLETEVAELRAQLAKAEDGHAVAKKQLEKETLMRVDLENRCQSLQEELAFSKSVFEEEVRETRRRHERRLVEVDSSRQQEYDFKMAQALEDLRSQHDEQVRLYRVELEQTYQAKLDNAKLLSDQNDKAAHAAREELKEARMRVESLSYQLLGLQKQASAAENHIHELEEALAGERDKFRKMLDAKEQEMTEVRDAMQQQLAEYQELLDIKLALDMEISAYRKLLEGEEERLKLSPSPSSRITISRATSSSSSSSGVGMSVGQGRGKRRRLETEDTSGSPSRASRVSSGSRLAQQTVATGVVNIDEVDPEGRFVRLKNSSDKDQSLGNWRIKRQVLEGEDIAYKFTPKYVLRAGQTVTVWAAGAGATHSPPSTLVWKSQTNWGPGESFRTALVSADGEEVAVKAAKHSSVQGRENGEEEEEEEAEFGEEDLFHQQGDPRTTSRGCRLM

T5 sequence (Q9NS69 whole entry): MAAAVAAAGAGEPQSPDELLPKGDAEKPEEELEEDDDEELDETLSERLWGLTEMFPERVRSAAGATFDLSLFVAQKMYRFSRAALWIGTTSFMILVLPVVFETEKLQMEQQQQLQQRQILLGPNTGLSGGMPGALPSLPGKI
T14 sequence (Q8BH04 33-640): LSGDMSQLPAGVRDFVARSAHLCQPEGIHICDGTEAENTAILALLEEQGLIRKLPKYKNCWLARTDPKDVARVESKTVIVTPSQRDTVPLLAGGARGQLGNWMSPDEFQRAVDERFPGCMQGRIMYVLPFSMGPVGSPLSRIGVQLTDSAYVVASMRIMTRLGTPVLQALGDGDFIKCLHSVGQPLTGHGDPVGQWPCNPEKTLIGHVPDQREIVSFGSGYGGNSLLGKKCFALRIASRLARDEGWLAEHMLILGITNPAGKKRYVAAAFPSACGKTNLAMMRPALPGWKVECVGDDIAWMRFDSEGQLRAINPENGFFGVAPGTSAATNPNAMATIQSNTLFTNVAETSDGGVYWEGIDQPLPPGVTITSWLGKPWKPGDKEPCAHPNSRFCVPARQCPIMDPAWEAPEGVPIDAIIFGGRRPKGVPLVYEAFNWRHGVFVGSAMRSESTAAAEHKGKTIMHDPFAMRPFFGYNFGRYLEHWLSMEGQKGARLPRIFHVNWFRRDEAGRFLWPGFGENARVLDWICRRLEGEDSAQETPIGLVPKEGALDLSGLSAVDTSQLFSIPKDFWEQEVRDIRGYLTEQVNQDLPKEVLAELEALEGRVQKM
T11 sequence (Q9HAW7 26-530): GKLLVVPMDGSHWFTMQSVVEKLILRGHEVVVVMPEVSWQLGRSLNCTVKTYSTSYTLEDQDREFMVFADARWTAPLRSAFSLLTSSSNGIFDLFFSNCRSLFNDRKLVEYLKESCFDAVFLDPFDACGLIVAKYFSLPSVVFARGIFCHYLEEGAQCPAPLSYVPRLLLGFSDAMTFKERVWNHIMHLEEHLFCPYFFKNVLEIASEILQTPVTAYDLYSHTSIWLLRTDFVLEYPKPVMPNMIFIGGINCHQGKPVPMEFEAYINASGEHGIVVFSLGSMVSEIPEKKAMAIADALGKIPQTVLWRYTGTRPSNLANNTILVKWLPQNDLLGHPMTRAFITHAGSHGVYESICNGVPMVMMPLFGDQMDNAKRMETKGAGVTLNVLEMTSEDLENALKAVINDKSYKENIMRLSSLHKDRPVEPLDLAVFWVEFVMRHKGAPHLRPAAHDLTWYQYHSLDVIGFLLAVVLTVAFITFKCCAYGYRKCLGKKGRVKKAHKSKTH
T2 sequence (Q14534 whole entry): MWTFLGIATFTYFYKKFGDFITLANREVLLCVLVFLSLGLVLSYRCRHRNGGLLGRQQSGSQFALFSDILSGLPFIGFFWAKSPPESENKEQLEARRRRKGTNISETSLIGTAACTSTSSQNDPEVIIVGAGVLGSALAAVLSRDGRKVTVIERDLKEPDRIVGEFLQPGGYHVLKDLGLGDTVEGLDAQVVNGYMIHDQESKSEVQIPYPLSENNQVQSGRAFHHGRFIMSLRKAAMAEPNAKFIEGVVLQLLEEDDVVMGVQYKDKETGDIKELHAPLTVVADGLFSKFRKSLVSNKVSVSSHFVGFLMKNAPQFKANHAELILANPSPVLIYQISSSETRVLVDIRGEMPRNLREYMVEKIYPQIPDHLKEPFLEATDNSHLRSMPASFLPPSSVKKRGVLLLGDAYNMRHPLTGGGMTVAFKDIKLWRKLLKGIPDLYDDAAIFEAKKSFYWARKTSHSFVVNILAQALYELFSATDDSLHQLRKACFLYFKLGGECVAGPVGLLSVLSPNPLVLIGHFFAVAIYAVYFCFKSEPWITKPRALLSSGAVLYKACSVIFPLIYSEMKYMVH
T3 sequence (P07602 60-524): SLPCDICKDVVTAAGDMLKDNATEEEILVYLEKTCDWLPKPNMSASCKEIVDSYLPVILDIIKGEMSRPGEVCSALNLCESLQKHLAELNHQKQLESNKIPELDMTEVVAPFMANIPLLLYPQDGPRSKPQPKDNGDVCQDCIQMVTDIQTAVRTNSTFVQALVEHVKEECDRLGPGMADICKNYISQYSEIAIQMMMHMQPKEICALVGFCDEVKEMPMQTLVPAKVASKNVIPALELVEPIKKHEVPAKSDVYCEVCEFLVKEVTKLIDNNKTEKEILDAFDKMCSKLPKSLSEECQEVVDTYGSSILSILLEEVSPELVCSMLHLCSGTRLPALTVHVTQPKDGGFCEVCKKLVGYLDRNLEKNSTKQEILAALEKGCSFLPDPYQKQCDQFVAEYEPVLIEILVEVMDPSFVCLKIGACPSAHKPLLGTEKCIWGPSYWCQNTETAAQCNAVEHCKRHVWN
T4 sequence (Q53GQ0 whole entry): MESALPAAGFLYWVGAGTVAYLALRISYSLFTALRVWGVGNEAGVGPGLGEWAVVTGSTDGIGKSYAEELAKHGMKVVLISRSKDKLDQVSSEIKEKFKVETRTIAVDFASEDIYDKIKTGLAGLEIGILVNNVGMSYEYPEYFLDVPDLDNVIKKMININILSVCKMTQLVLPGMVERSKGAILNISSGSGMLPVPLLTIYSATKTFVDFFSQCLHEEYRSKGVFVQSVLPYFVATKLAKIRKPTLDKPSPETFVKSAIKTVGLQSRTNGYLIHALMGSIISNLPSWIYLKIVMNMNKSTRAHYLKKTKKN
T9 sequence (P67812 whole entry): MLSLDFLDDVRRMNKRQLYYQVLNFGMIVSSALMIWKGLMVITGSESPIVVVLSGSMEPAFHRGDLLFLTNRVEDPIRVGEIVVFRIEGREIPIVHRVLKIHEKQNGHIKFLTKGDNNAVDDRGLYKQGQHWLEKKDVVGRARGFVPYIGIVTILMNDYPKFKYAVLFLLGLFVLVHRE
T15 sequence (P62814 whole entry): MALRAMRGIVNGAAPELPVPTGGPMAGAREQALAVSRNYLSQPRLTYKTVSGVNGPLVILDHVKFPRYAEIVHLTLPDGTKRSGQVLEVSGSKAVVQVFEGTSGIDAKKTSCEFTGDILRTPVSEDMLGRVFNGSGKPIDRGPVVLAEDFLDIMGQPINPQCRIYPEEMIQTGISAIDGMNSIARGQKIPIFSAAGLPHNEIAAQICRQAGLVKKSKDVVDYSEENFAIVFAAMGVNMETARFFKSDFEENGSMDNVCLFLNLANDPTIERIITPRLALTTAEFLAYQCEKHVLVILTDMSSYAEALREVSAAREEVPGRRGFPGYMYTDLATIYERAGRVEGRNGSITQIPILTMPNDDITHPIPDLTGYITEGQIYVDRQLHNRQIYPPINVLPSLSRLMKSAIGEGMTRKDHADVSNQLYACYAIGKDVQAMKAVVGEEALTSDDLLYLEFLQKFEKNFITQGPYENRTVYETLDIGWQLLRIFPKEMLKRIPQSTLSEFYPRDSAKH
T6 sequence (P30519 whole entry): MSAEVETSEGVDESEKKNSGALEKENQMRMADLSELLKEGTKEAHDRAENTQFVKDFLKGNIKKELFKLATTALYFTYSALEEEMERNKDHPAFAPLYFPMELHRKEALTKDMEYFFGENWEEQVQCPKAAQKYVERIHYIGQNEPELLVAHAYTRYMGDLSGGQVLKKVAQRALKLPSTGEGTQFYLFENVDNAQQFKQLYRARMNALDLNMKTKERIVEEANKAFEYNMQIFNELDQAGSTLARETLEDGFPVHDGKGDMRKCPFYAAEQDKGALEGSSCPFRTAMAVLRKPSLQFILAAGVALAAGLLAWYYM
T10 sequence (O15173 whole entry): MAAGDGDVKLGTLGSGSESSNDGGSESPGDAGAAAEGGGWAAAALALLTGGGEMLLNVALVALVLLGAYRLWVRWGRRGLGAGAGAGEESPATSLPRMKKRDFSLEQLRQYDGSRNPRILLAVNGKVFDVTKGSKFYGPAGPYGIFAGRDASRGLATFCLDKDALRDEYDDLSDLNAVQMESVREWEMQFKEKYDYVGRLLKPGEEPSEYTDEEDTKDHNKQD
T7 sequence (Q9H4I3 whole entry): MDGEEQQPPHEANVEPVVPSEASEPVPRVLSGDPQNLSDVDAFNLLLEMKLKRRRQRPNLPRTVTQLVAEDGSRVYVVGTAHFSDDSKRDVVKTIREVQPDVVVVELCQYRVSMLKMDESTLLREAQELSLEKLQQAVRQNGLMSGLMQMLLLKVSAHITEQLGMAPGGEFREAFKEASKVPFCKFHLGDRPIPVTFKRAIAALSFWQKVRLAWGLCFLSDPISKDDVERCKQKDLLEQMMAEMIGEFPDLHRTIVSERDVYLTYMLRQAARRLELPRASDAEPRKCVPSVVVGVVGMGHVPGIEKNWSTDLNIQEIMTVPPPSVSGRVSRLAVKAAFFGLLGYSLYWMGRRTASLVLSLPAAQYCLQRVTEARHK

CCCCC/C=C\C/C=C\C/C=C\C/C=C\CCCC(=O)NCCO [AEA, anandamide, reference compound]
SILAC ratio Pank4 [1]: 1.6

C#CCCCC1(CC/C=C\C/C=C\C/C=C\CCCC(=O)NCCO)N=N1 [AEA-DA, (5Z,8Z,11Z)-N-(2-hydroxyethyl)-14-(3-(pent-4-yn-1-yl)-3H-diazirin-3-yl)tetradeca-5,8,11-trienamide]
SILAC ratio, VDAC1 (P21796) [2]: 20.0 | SILAC ratio, SQLE (Q14534) [3]: 20.0 | SILAC ratio, PSAP (P07602) [4]: 20.0 | SILAC ratio, HSD17B12 (Q53GQ0) [5]: 20.0 | SILAC ratio, TOMM22 (Q9CPQ3) [6]: 20.0 | SILAC ratio, HMOX2 (P30519) [7]: 20.0 | SILAC ratio, TRABD (Q99JY4) [8]: 20.0 | SILAC ratio, ANKLE2 (Q86XL3) [9]: 20.0 | SILAC ratio, SEC11A (P67812) [10]: 14.0 | SILAC ratio, PGRMC2 (Q80UU9) [11]: 20.0 | SILAC ratio, UGT1A7 (Q9HAW7) [12]: 20.0 | SILAC ratio, SGPL1 (O95470) [13]: 20.0 | SILAC ratio, VDAC2 (P45880) [14]: 20.0 | Times observed [15]: 12 | Times observed [16]: 3

O=C(/C=C/c1cccnc1)NCCCCC1CCN(C(=O)c2ccccc2)CC1 [FK-866, reference compound]
SILAC ratio, Plec [17]: 2.1

CN1CCN(C(=O)c2[nH]c3ccc([N+](=O)[O-])cc3c2-c2ccccc2)CC1 [MJN228, (4-Methylpiperazin-1-yl)(5-nitro-3-phenyl-1H-indol-2-yl)methanone]
SILAC ratio (AEA-DA competition) [18]: 1.9
